How the values were obtained:
[1] = tested on: S. pneumoniae D39V; assay: fitness (endpoint OD595 vs no drug) (fraction); higher = more growth
How it was run: (§1)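 Volumes were 30 µl per well, or 55 µl for S. pneumoniae, in 384-well plates inoculated at OD595 0.01. Media were TSB, LB Lennox or CY at 37 °C, and OD595 was read every 30 min for 14 h with first-reading background subtraction. Fitness is the ratio of optical density at stationary-phase entry to the robust mean of no-drug controls. That ratio is capped at 1.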

[2] = tested on: B. subtilis 168; assay: as above
How it was run: as §1

CN(C)[C@@H]1C(O)=C(C(N)=O)C(=O)[C@@]2(O)C(O)=C3C(=O)c4c(O)ccc(Cl)c4[C@@](C)(O)[C@H]3C[C@@H]12 [Chlortetracycline] + CN[C@@H]1[C@H](O[C@H]2[C@H](O[C@H]3[C@H](O)[C@@H](O)[C@H](N=C(N)N)[C@@H](O)[C@@H]3N=C(N)N)O[C@@H](C)[C@]2(O)C=O)O[C@@H](CO)[C@H](O)[C@H]1O [Streptomycin]
fitness, [1], one replicate
Conditions | first compound 0.012 µg/mL | first compound 0.024 µg/mL | first compound 0.048 µg/mL
partner 2 µg/mL | 0.886 | 0.861 | 0.794
partner 16 µg/mL | 0.757 | 0.72 | 0.619

fitness
Conditions | partner 2 µg/mL | partner 4 µg/mL | partner 8 µg/mL
[1], first compound 0.012 µg/mL | – | 0.898 | 0.829
[1], first compound 0.024 µg/mL | – | 0.827 | 0.794
[1], first compound 0.048 µg/mL | – | 0.762 | 0.779
[1], first compound 0.375 µg/mL | 0.0439 | 0.0457 | 0.0281
[1], first compound 0.75 µg/mL | 0.0196 | 0.0558 | 0.0751
[1], first compound 1.5 µg/mL | 0.0385 | 0.0525 | 0.0578
[2], first compound 0.0475 µg/mL | 0.863 | 0.729 | –
[2], first compound 0.095 µg/mL | 0.735 | 0.601 | –
[2], first compound 0.19 µg/mL | 0.473 | 0.367 | 0.0988

O=C(O)c1cn(C2CC2)c2cc(N3CCNCC3)c(F)cc2c1=O [Ciprofloxacin] + CN(C)[C@@H]1C(O)=C(C(N)=O)C(=O)[C@@]2(O)C(O)=C3C(=O)c4c(O)ccc(Cl)c4[C@@](C)(O)[C@H]3C[C@@H]12 [Chlortetracycline]
Conditions | fitness
[1], first compound 0.125 µg/mL, partner 0.012 µg/mL | 0.867
[1], first compound 0.125 µg/mL, partner 0.024 µg/mL | 0.748
[1], first compound 0.125 µg/mL, partner 0.048 µg/mL | 0.35
[1], first compound 0.125 µg/mL, partner 0.375 µg/mL | 0.0283
[1], first compound 0.125 µg/mL, partner 0.75 µg/mL | 0.038
[1], first compound 0.125 µg/mL, partner 1.5 µg/mL | 0.0287
[1], first compound 0.25 µg/mL, partner 0.375 µg/mL | 0.0322
[1], first compound 0.25 µg/mL, partner 0.75 µg/mL | 0.0502
[1], first compound 0.25 µg/mL, partner 1.5 µg/mL | 0.0591
[1], first compound 0.5 µg/mL, partner 0.048 µg/mL | 0.323
[1], first compound 0.5 µg/mL, partner 0.75 µg/mL | 0.0332
[1], first compound 0.5 µg/mL, partner 1.5 µg/mL | 0.0454
[2], first compound 0.0098 µg/mL, partner 0.0475 µg/mL | 0.886
[2], first compound 0.0098 µg/mL, partner 0.095 µg/mL | 0.82
[2], first compound 0.0098 µg/mL, partner 0.19 µg/mL | 0.658
[2], first compound 0.0195 µg/mL, partner 0.0475 µg/mL | 0.776
[2], first compound 0.0195 µg/mL, partner 0.095 µg/mL | 0.692
[2], first compound 0.0195 µg/mL, partner 0.19 µg/mL | 0.582
[2], first compound 0.039 µg/mL, partner 0.19 µg/mL | 0.307

[1], first compound 0.25 µg/mL, one replicate
Conditions | fitness
partner 0.012 µg/mL | 0.74
partner 0.024 µg/mL | 0.447
partner 0.048 µg/mL | 0.237

CN(C)[C@@H]1C(O)=C(C(N)=O)C(=O)[C@@]2(O)C(O)=C3C(=O)c4c(O)ccc(Cl)c4[C@@](C)(O)[C@H]3C[C@@H]12 [Chlortetracycline] + C[C@H]1c2cccc(O)c2C(=O)C2=C(O)[C@]3(O)C(=O)C(C(N)=O)=C(O)[C@@H](N(C)C)[C@@H]3[C@@H](O)[C@@H]21 [Doxycycline]
fitness, [1], one replicate
Conditions | partner 0.003875 µg/mL | partner 0.00775 µg/mL | partner 0.031 µg/mL | partner 0.062 µg/mL
first compound 0.012 µg/mL | 0.909 | 0.91 | 0.8 | 0.707
first compound 0.024 µg/mL | 0.834 | 0.808 | 0.821 | 0.774
first compound 0.048 µg/mL | 0.774 | 0.809 | 0.745 | 0.614

Conditions | fitness
[1], first compound 0.012 µg/mL, partner 0.0155 µg/mL | 0.921
[1], first compound 0.024 µg/mL, partner 0.0155 µg/mL | 0.88
[1], first compound 0.048 µg/mL, partner 0.0155 µg/mL | 0.803
[1], first compound 0.375 µg/mL, partner 0.0155 µg/mL | 0.0318
[1], first compound 0.375 µg/mL, partner 0.031 µg/mL | 0.0187
[1], first compound 0.375 µg/mL, partner 0.062 µg/mL | 0.0418
[1], first compound 0.75 µg/mL, partner 0.0155 µg/mL | 0.0248
[1], first compound 0.75 µg/mL, partner 0.031 µg/mL | 0.0352
[1], first compound 0.75 µg/mL, partner 0.062 µg/mL | 0.0311
[1], first compound 1.5 µg/mL, partner 0.0155 µg/mL | 0.0258
[1], first compound 1.5 µg/mL, partner 0.031 µg/mL | 0.067
[1], first compound 1.5 µg/mL, partner 0.062 µg/mL | 0.047
[2], first compound 0.0475 µg/mL, partner 0.02 µg/mL | 0.858
[2], first compound 0.0475 µg/mL, partner 0.04 µg/mL | 0.658
[2], first compound 0.095 µg/mL, partner 0.02 µg/mL | 0.735
[2], first compound 0.095 µg/mL, partner 0.04 µg/mL | 0.553
[2], first compound 0.19 µg/mL, partner 0.08 µg/mL | 0.0672

CN(C)[C@@H]1C(O)=C(C(N)=O)C(=O)[C@@]2(O)C(O)=C3C(=O)c4c(O)ccc(Cl)c4[C@@](C)(O)[C@H]3C[C@@H]12 [Chlortetracycline] + CN(C)c1cc(NC(=O)CNC(C)(C)C)c(O)c2c1C[C@H]1C[C@H]3[C@H](N(C)C)C(O)=C(C(N)=O)C(=O)[C@@]3(O)C(O)=C1C2=O [Tigecycline]
Conditions | fitness
[1], first compound 0.012 µg/mL, partner 0.65 µg/mL | 0.943
[1], first compound 0.012 µg/mL, partner 1.3 µg/mL | 0.98
[1], first compound 0.012 µg/mL, partner 2.6 µg/mL | 0.866
[1], first compound 0.024 µg/mL, partner 0.65 µg/mL | 0.949
[1], first compound 0.024 µg/mL, partner 1.3 µg/mL | 0.909
[1], first compound 0.024 µg/mL, partner 2.6 µg/mL | 0.862
[1], first compound 0.048 µg/mL, partner 0.65 µg/mL | 0.867
[1], first compound 0.048 µg/mL, partner 1.3 µg/mL | 0.814
[1], first compound 0.048 µg/mL, partner 2.6 µg/mL | 0.815
[1], first compound 0.375 µg/mL, partner 0.325 µg/mL | 0.0315
[1], first compound 0.375 µg/mL, partner 0.65 µg/mL | 0.0403
[1], first compound 0.375 µg/mL, partner 1.3 µg/mL | 0.0368
[1], first compound 0.75 µg/mL, partner 0.325 µg/mL | 0.0625
[1], first compound 0.75 µg/mL, partner 0.65 µg/mL | 0.0555
[1], first compound 0.75 µg/mL, partner 1.3 µg/mL | 0.0691
[1], first compound 1.5 µg/mL, partner 0.325 µg/mL | 0.0404
[1], first compound 1.5 µg/mL, partner 0.65 µg/mL | 0.0304
[1], first compound 1.5 µg/mL, partner 1.3 µg/mL | 0.0788
[2], first compound 0.0475 µg/mL, partner 0.039 µg/mL | 0.924
[2], first compound 0.0475 µg/mL, partner 0.078 µg/mL | 0.873
[2], first compound 0.0475 µg/mL, partner 0.156 µg/mL | 0.823
[2], first compound 0.095 µg/mL, partner 0.039 µg/mL | 0.828
[2], first compound 0.095 µg/mL, partner 0.078 µg/mL | 0.781
[2], first compound 0.095 µg/mL, partner 0.156 µg/mL | 0.784
[2], first compound 0.19 µg/mL, partner 0.039 µg/mL | 0.651
[2], first compound 0.19 µg/mL, partner 0.078 µg/mL | 0.605
[2], first compound 0.19 µg/mL, partner 0.156 µg/mL | 0.5

fitness, [2], one replicate
Conditions | first compound 0.0475 µg/mL | first compound 0.095 µg/mL | first compound 0.19 µg/mL
partner 0.125 µg/mL | 0.996 | 0.974 | 0.827
partner 0.25 µg/mL | 0.915 | 0.874 | 0.763
partner 0.5 µg/mL | 0.933 | 0.879 | 0.84
